Measured values from PMC12591484 (PLOS One, 2025).

Columns and labels:
[1] = test system: α1β3γ2L GABAA receptors, bulky mutation at β3M286; parameters: method as in PMID 30696720; key: +: Mutant-function studies are deemed positive when bulky mutations (mostly tryptophans) at the site significantly reduce positive modulation by anesthetics; -: Negative results are indicated by “–“ symbols; conditions: cited from earlier work
[2] = test system: α1β3γ2L GABAA receptors, bulky mutation at α1M236; parameters: key: +: Mutant-function studies are deemed positive when bulky mutations (mostly tryptophans) at the site significantly reduce positive modulation by anesthetics; -: Negative results are indicated by “–“ symbols; conditions: cited from earlier work
[3] = test system: α1β3γ2L GABAA receptors, bulky mutation at β3L231; parameters: key: +: Mutant-function studies are deemed positive when bulky mutations (mostly tryptophans) at the site significantly reduce positive modulation by anesthetics; -: Negative results are indicated by “–“ symbols; conditions: cited from earlier work
[4] = molecular target: T1, α1β3γ2I242C GABAA receptors (Homo sapiens, UniProt P14867+P18507+P28472, I281C); parameters: key: +: Mutant-function studies are deemed positive when bulky mutations (mostly tryptophans) at the site significantly reduce positive modulation by anesthetics; -: Negative results are indicated by “–“ symbols; conditions: previously reported; cited from earlier work
T1 construct: expressed in transfected cells; host or cells: Xenopus oocytes injected with capped mRNAs mixed 1α:1β:5γ
T1 sequence (P14867 28-456): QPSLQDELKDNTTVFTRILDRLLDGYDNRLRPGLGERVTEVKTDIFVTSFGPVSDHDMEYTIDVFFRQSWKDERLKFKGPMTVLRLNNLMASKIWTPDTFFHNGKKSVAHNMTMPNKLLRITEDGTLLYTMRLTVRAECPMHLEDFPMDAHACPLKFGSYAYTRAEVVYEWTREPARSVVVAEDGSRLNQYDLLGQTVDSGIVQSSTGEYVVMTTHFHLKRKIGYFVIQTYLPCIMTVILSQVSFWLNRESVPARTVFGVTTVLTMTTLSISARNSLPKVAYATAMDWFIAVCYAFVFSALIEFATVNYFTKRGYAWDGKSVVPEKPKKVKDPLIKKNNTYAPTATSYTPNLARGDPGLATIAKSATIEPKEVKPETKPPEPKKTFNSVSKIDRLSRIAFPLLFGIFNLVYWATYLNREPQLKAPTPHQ
T1 sequence (P28472 26-473): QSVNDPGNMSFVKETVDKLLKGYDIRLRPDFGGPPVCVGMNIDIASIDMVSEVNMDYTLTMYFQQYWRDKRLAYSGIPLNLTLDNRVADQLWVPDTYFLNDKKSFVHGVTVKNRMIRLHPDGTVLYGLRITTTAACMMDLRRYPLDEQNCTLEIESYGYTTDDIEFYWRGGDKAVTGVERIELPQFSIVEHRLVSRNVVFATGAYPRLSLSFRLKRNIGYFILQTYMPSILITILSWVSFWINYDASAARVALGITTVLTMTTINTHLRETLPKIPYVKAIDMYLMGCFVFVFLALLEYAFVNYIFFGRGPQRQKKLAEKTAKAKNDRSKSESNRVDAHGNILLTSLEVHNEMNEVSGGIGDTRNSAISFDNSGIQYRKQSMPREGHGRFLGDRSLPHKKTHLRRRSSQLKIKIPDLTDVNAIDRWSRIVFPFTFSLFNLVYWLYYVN
T1 sequence (P18507 40-475 I281C): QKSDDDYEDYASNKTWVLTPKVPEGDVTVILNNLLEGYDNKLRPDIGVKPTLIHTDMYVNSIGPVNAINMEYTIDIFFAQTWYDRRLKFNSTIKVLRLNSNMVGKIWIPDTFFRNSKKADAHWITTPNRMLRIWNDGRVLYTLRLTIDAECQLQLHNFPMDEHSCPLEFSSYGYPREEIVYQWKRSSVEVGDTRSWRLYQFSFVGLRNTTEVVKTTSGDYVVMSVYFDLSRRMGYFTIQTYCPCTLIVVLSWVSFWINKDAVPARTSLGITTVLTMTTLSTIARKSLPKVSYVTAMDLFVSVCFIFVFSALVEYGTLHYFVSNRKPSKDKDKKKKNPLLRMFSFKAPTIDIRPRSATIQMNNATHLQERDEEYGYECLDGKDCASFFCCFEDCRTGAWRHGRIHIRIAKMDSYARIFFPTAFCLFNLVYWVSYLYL

[5] = molecular target: T2, α1A291Cβ3γ2L GABAA receptors (Homo sapiens, UniProt P14867+P18507+P28472, A318C); assay: Drug protection from pCMBS modification (SCAMP); assay type: cell-based; conditions: for modification ratio with anesthetic present, single oocyte example (Fig 2): 3 mM GABA + 10 µM pCMBS for 90 s plus […] etomidate
T2 construct: expressed in transfected cells; host or cells: Xenopus oocytes injected with capped mRNA, 1α:1β:5γ
T2 sequence (P14867 28-456 A318C): as the sequence (P14867 28-456) above, with A291C counted along it
T2 sequence (P28472 26-473): as the sequence (P28472 26-473) above
T2 sequence (P18507 40-475): as the sequence (P18507 40-475 I281C) above, with C242I counted along it
Experimental: (§1) Experiments were performed in ND-96 buffer at room temperature (20–22°C). Oocytes were placed in a low-volume (30µl) flow chamber and impaled with borosilicate microelectrodes filled with 3M KCl (resistance 0.5–3 MΩ) and voltage-clamped at −50 mV (model OC-725C; Warner Instruments, Hamden, CT, USA). Superfusate solutions in ND-96 were delivered at 2 ml/min from glass syringe reservoirs via computer-controlled valves (VC-8; Warner Instruments), a micro-manifold (ALA-VM8; ALA Scientific Instruments, Farmingdale, NY, USA), and PTFE tubing. Currents were digitized at 200 Hz on a computer running ClampEx v8.0 software (Molecular Devices, San Jose, CA, USA). Digitized traces were filtered with a 10-Hz low-pass Bessel function, leak corrected and analyzed for peak amplitude off-line using Clampfit v8 software (Molecular Devices).
(§2) Drug protection from pCMBS modification was assessed under pCMBS exposure conditions that produced approximately half of the maximal modification ratio for each mutant receptor, and a least a value of 3. This approach balanced the magnitude of functional modification signals (smaller with less pCMBS exposure) against the challenge of using a reversibly bound ligand to competitively block an irreversible covalent cysteine-modifying reaction. […] Each oocyte was used in a single SCAMP experiment. […] Etomidate was used as a positive control for anesthetic protection in α1M236C and β3M286C mutants and as a negative control in α1S270C, α1A291C, β3L231C, γ2S301C, γ2I242C, and γ2L246C mutants. R-mTFD-MPAB was used as a positive control in α1S270C, α1A291C, β3L231C, and γ2LS301C mutants and as a negative control in α1M236C and β3M286C mutants. For each cysteine mutant and protective drug combination, five oocytes were studied.
(§3) Non-linear least squares fits and statistical analyses were performed in Prism 10.4.0. (GraphPad Software, San Diego, CA, USA). […] Protection (steric inhibition of pCMBS modification) was inferred when anesthetics produced significant reductions in modification ratios relative to control (no anesthetic) values. The statistical significance threshold was p < 0.05.

[6] = test system: α1β3γ2L GABAA receptors, bulky mutation at γ2S301; parameters: method as in PMID 30696720; key: +: Mutant-function studies are deemed positive when bulky mutations (mostly tryptophans) at the site significantly reduce positive modulation by anesthetics; -: Negative results are indicated by “–“ symbols; conditions: cited from earlier work
[7] = test system: α1β3γ2L GABAA receptors, substituted cysteine at β3M227 (β3– M1); parameters: key: +: Mutant-function studies are deemed positive when bulky mutations (mostly tryptophans) at the site significantly reduce positive modulation by anesthetics; -: Negative results are indicated by “–“ symbols; conditions: previously reported; cited from earlier work
[8] = test system: α1β3γ2L GABAA receptors, substituted cysteine at α1L232 (α1– M1); parameters: key: +: SCAMP is Substituted Cysteine Modification and Protection and is positive when adding anesthetic to cysteine modifier significantly reduces persistent post-exposure effects due to covalent modification; -: Negative results are indicated by “–“ symbols; conditions: previously reported; cited from earlier work
[9] = molecular target: T3, α1β3L231Cγ2L GABAA receptors (Homo sapiens, UniProt P14867+P18507+P28472, L256C); assay: Drug protection from pCMBS modification (SCAMP); assay type: cell-based; parameters: key: +: Mutant-function studies are deemed positive when bulky mutations (mostly tryptophans) at the site significantly reduce positive modulation by anesthetics; -: Negative results are indicated by “–“ symbols; conditions: results of this study (*); some cells also cite [9]
T3 construct: expressed in transfected cells; host or cells: Xenopus oocytes injected with capped mRNA, 1α:1β:5γ
T3 sequence (P14867 28-456): as the sequence (P14867 28-456) above
T3 sequence (P28472 26-473 L256C): as the sequence (P28472 26-473) above, with L231C counted along it
T3 sequence (P18507 40-475): as the sequence (P18507 40-475 I281C) above, with C242I counted along it
Experimental: as §1, §2, §3

[10] = molecular target: T4, α1β3γ2L246C GABAA receptors (Homo sapiens, UniProt P14867+P18507+P28472, L285C); assay: Drug protection from pCMBS modification (SCAMP); assay type: cell-based; parameters: key: +: Mutant-function studies are deemed positive when bulky mutations (mostly tryptophans) at the site significantly reduce positive modulation by anesthetics; -: Negative results are indicated by “–“ symbols; conditions: results of this study (*); etomidate cell also cites [9]
T4 construct: expressed in transfected cells; host or cells: Xenopus oocytes injected with capped mRNAs mixed 1α:1β:5γ
T4 sequence (P14867 28-456, stated change not applied): as the sequence (P14867 28-456) above
T4 sequence (P28472 26-473): as the sequence (P28472 26-473) above
T4 sequence (P18507 40-475 L285C): as the sequence (P18507 40-475 I281C) above, with C242I, L246C counted along it
Experimental: as §1, §2, §3

[11] = α1A291Cβ3γ2L, 8 µM R-mTFD-MPAB or 10 µM pTFD-di-iPr-BnOH

SMILES	Mutant-function result, β3+ (M2, M3) M286 [1]	Mutant-function result, α1– (M1) M236 [2]	Mutant-function result, β3– (M1) L231 [3]	SCAMP result, γ2– (M1) I242 [4]	protection from pCMBS modification (significant reduction of modification ratio vs control, p < 0.05) ([5]; α1A291C (α+), pCMBS 10 µM x 90 s, […] etomidate, 8 µM R-mTFD-MPAB or 10 µM pTFD-di-iPr-BnOH, n = 5)	modification ratio with anesthetic present, single oocyte example (Fig 2) [5, 11]	modification ratio lower than control ([5]; α1A291Cβ3γ2L, single oocyte examples of Fig 2, control modification ratio 4.0)	Mutant-function result, γ2+ (M2, M3) S301 [6]	SCAMP result, β3– (M1) M227 [7]	SCAMP result, α1– (M1) L232 [8]	SCAMP result, β3– (M1) L231 [9]	SCAMP result, γ2– (M1) L246 [10]
C=CCC1(c2cccc(C3(C(F)(F)F)N=N3)c2)C(=O)NC(=O)N(C)C1=O (centres unmarked) [R-mTFD-MPAB, R-5-allyl-1-methyl-5-(m-trifluoromethyl-diazirynylphenyl) barbituric acid]	-^[13]	-^[9]	-^[9]	-^[9]	protection was inferred	2.1	47%	+^[13]				
CCOC(=O)c1cncn1[C@H](C)c1ccccc1 [etomidate, R-etomidate]	+^[13]	+^[9], [12]	+^[9]			3.8		-^[13]	-^[9]	+^[9]	-^[9], *	-^[9], *
